Source: US4217274A, “Methoxyethoxymethyl esters of penicillins” (Bristol-Myers Company, priority 1978, dated 1980)
In brackets after ≈: the same amount, converted by molar mass. Like-named read-outs stand apart in the source and are kept apart here.

Columns and labels:
[1] = test system: E. Coli; experiment: MIC, antibiotic dilution technique (agar); format: cell-based; conditions: Escherichia coli
Source text: (§1) Bacteria. The organisms, preponderantly of recent clinical origin, were obtained from numerous sources of broad geographical distribution. Obligate anaerobes were maintained in Egg Meat Medium (Difco); Mycobacterium was stored on Lowenstein Medium (Jensen Modification; Difco). The techniques of storing all other organisms have been described previously [Leitner et al., BL-S640, A Cephalosporin with a Broad Spectrum of Antibacterial Activity: Properties in vitro, Antimicrob. Agents Chemother., 7, 298-305 (1975)].
(§2) Antibiotic spectrum. The growth-inhibitory activity of the compounds was determined by the antibiotic dilution technique. Procedures were as follows:
(§3) Aerobic organisms (excluding Mycobacterium). Except for Haemophilus and Neisseria, the assay was performed in Mueller-Hinton Medium (Difco). For fastidious organisms, i.e., Streptococcus, Listeria, Pasteurella, Bordetella and Vibrio, the medium was supplemented with 4% defibrinated sheep blood. The antibiotic susceptibility of Haemophilus and Neisseria was determined in GC Medium Base (BBL) supplemented with 1% Hemoglobin (BBL) and 1% Isovitalex (BBL).
(§4) Overnight broth cultures of an exponentially growing culture (Neisseria) served as the source of inoculum. A volume of approximately 0.003 ml. of the undiluted or diluted culture was applied to the surface of the antibiotic-containing agar plates with the inoculator of Steers et al., An Inocula Replicating Apparatus for Routine Testing of Bacterial Susceptibility to Antibiotics, Antibiot. Chemother., 9, 307-311, (1959). Cultures of Neisseria, Streptococcus pneumoniae, S. viridans and S. pyogenes were used without dilution; those of all other organisms were diluted 100-fold. The inoculum contained about 10^3 viable cells for Neisseria, 10^5 for S. pneumoniae and S. pyogenes, 10^6 for S. viridans and 10^4 for all other species.

[2] = test system: Ser. marcescens; experiment: MIC, antibiotic dilution technique (agar); format: cell-based; conditions: Serratia marcescens
Source text: as §1, §2, §3, §4

[3] = test system: Pr. rettgeri; experiment: MIC, antibiotic dilution technique (agar); format: cell-based; conditions: Providencia rettgeri
Source text: as §1, §2, §3, §4

[4] = test system: Str. pneumoniae; experiment: MIC, antibiotic dilution technique (agar); format: cell-based; conditions: Streptococcus pneumoniae
Source text: as §1, §2, §3, §4

[5] = test system: Str. faecalis; experiment: MIC, antibiotic dilution technique (agar); format: cell-based; conditions: Enterococcus faecalis
Source text: as §1, §2, §3, §4

[6] = test system: S. aureus Meth-Res.; experiment: MIC, antibiotic dilution technique (agar); format: cell-based; conditions: Staphylococcus aureus
Source text: as §1, §2, §3, §4

[7] = test system: S. aureus Pen-Res.; experiment: MIC, antibiotic dilution technique (agar); format: cell-based; conditions: Staphylococcus aureus
Source text: as §1, §2, §3, §4

[8] = test system: Pr. vulgaris; experiment: MIC, antibiotic dilution technique (agar); format: cell-based; conditions: Proteus vulgaris
Source text: as §1, §2, §3, §4

[9] = test system: K. pneumoniae; experiment: MIC, antibiotic dilution technique (agar); format: cell-based; conditions: Klebsiella pneumoniae
Source text: as §1, §2, §3, §4

[10] = test system: Pr. mirabilis; experiment: MIC, antibiotic dilution technique (agar); format: cell-based; conditions: Proteus mirabilis
Source text: as §1, §2, §3, §4

[11] = test system: Ps. aeruginosa; experiment: MIC, antibiotic dilution technique (agar); format: cell-based; conditions: Pseudomonas aeruginosa
Source text: as §1, §2, §3, §4

[12] = test system: S. aureus; experiment: MIC, antibiotic dilution technique (agar); format: cell-based; conditions: Staphylococcus aureus
Source text: as §1, §2, §3, §4

[13] = test system: Ent. cloacae; experiment: MIC, antibiotic dilution technique (agar); format: cell-based; conditions: Enterobacter cloacae
Source text: as §1, §2, §3, §4

[14] = test system: Pr. morganii; experiment: MIC, antibiotic dilution technique (agar); format: cell-based; conditions: Morganella morganii
Source text: as §1, §2, §3, §4

[15] = test system: Str. pyogenes; experiment: MIC, antibiotic dilution technique (agar); format: cell-based, S. pyogenes; conditions: Streptococcus pyogenes
Source text: as §1, §2, §3, §4

[16] = Mouse blood levels after oral administration (disc diffusion bioassay, Bacillus subtilis); conditions: in vivo, 100 mg/kg
[17] = test system: E. Coli; experiment: MIC, antibiotic dilution technique (agar), Table 4; format: cell-based; conditions: Escherichia coli
Source text: as §1, §2, §3, §4

[18] = test system: Streptococcus sp. (β-hemolytic); experiment: MIC, antibiotic dilution technique (agar), Table 4; format: cell-based; conditions: Table 4, 6 strains, geometric mean where applicable
Source text: as §1, §2, §3, §4

[19] = test system: S. pyogenes; experiment: MIC, antibiotic dilution technique (agar), Table 4; format: cell-based; conditions: Streptococcus pyogenes; Table 4, 6 strains, geometric mean where applicable
Source text: as §1, §2, §3, §4

[20] = test system: P. mirabilis; experiment: MIC, antibiotic dilution technique (agar), Table 4; format: cell-based; conditions: Proteus mirabilis
Source text: as §1, §2, §3, §4

[21] = test system: S. faecalis; experiment: MIC, antibiotic dilution technique (agar), Table 4; format: cell-based; conditions: Enterococcus faecalis; Table 4, 6 strains, geometric mean where applicable
Source text: as §1, §2, §3, §4

[22] = test system: p. vulgaris; experiment: MIC, antibiotic dilution technique (agar), Table 4; format: cell-based; conditions: Proteus vulgaris; Table 4, 2 strains, geometric mean where applicable
Source text: as §1, §2, §3, §4

[23] = test system: K. pneumoniae; experiment: MIC, antibiotic dilution technique (agar), Table 4; format: cell-based; conditions: Klebsiella pneumoniae
Source text: as §1, §2, §3, §4

[24] = test system: S. aureus (lacking penase); experiment: MIC, antibiotic dilution technique (agar), Table 4; format: cell-based; conditions: Staphylococcus aureus; Table 4, 6 strains, geometric mean where applicable
Source text: as §1, §2, §3, §4

[25] = test system: P. rettgeri; experiment: MIC, antibiotic dilution technique (agar), Table 4; format: cell-based; conditions: Providencia rettgeri
Source text: as §1, §2, §3, §4

[26] = test system: E. cloacae; experiment: MIC, antibiotic dilution technique (agar), Table 4; format: cell-based; conditions: Enterobacter cloacae; Table 4, 2 strains, geometric mean where applicable
Source text: as §1, §2, §3, §4

[27] = test system: S. viridans; experiment: MIC, antibiotic dilution technique (agar), Table 4; format: cell-based; conditions: Streptococcus viridans
Source text: as §1, §2, §3, §4

[28] = test system: S. pneumoniae; experiment: MIC, antibiotic dilution technique (agar), Table 4; format: cell-based; conditions: Streptococcus pneumoniae; Table 4, 7 strains, geometric mean where applicable
Source text: as §1, §2, §3, §4

[29] = test system: S. marcescens; experiment: MIC, antibiotic dilution technique (agar), Table 4; format: cell-based; conditions: Serratia marcescens
Source text: as §1, §2, §3, §4

For CC1(C)S[C@@H]2[C@H](NC(=O)[C@H](N)c3ccc(O)cc3)C(=O)N2[C@H]1C(=O)O [Amoxicillin, amoxicillin], the MIC ([1]; Table 2, E. coli, first line) was 0.5 µg/mL (≈ 1.37 µM), the MIC ([1]; Table 2, E. coli, second line) was > 125 µg/mL and the MIC ([2]; Table 2, Ser. marcescens) was 32 µg/mL (≈ 87.6 µM). For the same molecule, the MIC ([3]; Table 2, Pr. rettgeri) was 16 µg/mL (≈ 43.8 µM), the MIC ([4]; Table 2, Str. pneumoniae) was 0.004 µg/mL (≈ 0.0109 µM) and the MIC ([5]; Table 2, Str. faecalis) was 0.06 µg/mL (≈ 0.164 µM). The MIC ([6]; Table 2, S. aureus Meth-Res.) was 32 µg/mL (≈ 87.6 µM), the MIC [7] was > 125 µg/mL and the MIC ([8]; Table 2, Pr. vulgaris) was 0.06 µg/mL (≈ 0.164 µM). For the same molecule, the MIC ([9]; Table 2, K. pneumoniae, first line) was 125 µg/mL (≈ 342 µM), the MIC ([9]; Table 2, K. pneumoniae, second line) was > 125 µg/mL and the MIC ([10]; Table 2, Pr. mirabilis) was 0.06 µg/mL (≈ 0.164 µM). For the same molecule, the MIC ([11]; Table 2, Ps. aeruginosa, first line) was 125 µg/mL (≈ 342 µM), the MIC ([11]; Table 2, Ps. aeruginosa, second line) was > 125 µg/mL and the MIC ([12]; Table 2, S. aureus) was 0.03 µg/mL (≈ 0.0821 µM). It also gave an MIC ([12]; Table 2, S. aureus + 50% serum) of 0.06 µg/mL, an MIC [13] of 125 µg/mL (≈ 342 µM) and an MIC ([13]; Table 2, Ent. cloacae, first line, read-out: MIC) of 63 µg/mL (≈ 172 µM). The MIC [14] was 125 µg/mL (≈ 342 µM), the MIC ([15]; Table 2, Str. pyogenes) was 0.004 µg/mL (≈ 0.0109 µM) and the concentration at 0.25 h [16] was 9500 ng/mL. For the same molecule, the concentration at 0.5 h [16] was 16900 ng/mL, the concentration at 1 h [16] was 14200 ng/mL and the concentration at 1.5 h [16] was 8700 ng/mL. It also gave a concentration at 2 h [16] of 6300 ng/mL and a concentration at 3 h [16] of 3100 ng/mL.
In the case of CC1(C)S[C@@H]2[C@H](NC(=O)[C@H](N)c3ccccc3)C(=O)N2[C@H]1C(=O)O [Ampicillin, ampicillin], the MIC ([1]; Table 1, E. Coli, first line) is reported as 1 µg/mL (≈ 2.86 µM), the MIC ([1]; Table 1, E. Coli, second line) is reported as 63 µg/mL (≈ 180 µM) and the MIC ([2]; Table 1, Ser. marcescens) is reported as 16 µg/mL (≈ 45.8 µM). The MIC ([3]; Table 1, Pr. rettgeri) was 8 µg/mL (≈ 22.9 µM), the MIC ([4]; Table 1, Str. pneumoniae) was 0.004 µg/mL (≈ 0.0114 µM) and the MIC ([5]; Table 1, Str. faecalis) was 0.13 µg/mL (≈ 0.372 µM). The MIC ([6]; Table 1, S. aureus Meth-Res.) was 16 µg/mL (≈ 45.8 µM), the MIC [7] was 125 µg/mL (≈ 358 µM) and the MIC ([8]; Table 1, Pr. vulgaris) was 0.13 µg/mL (≈ 0.372 µM). The MIC ([9]; Table 1, K. pneumoniae, first line, read-out: MIC) was 63 µg/mL (≈ 180 µM), the MIC ([9]; Table 1, K. pneumoniae, second line, read-out: MIC) was 32 µg/mL (≈ 91.6 µM) and the MIC ([10]; Table 1, Pr. mirabilis) was 0.06 µg/mL (≈ 0.172 µM). The MIC ([11]; Table 1, Ps. aeruginosa, first line, read-out: MIC) was 63 µg/mL (≈ 180 µM), the MIC ([11]; Table 1, Ps. aeruginosa, second line) was > 125 µg/mL and the MIC ([12]; Table 1, S. aureus) was 0.03 µg/mL (≈ 0.0859 µM). For the same molecule, the MIC ([12]; Table 1, S. aureus + 50% serum) was 0.06 µg/mL, the MIC ([13]; Table 1, Ent. cloacae, first line, read-out: MIC) was 32 µg/mL (≈ 91.6 µM) and the MIC ([13]; Table 1, Ent. cloacae, second line, read-out: MIC) was 32 µg/mL (≈ 91.6 µM). The MIC [14] was 125 µg/mL (≈ 358 µM), the MIC ([17]; 1 strain (first line)) was 0.5 µg/mL (≈ 1.43 µM) and the MIC ([17]; 1 strain (fourth line)) was > 125 µg/mL. For the same molecule, the MIC ([17]; 1 strain (third line)) was 63 µg/mL (≈ 180 µM), the MIC ([17]; 3 strains (second line), geometric mean where applicable) was 2.5 µg/mL (≈ 7.15 µM) and the MIC [18] was 0.063 µg/mL (≈ 0.18 µM). The MIC [19] was 0.016 µg/mL (≈ 0.0458 µM), the MIC [20] was > 125 µg/mL and the MIC ([20]; Table 4, P. mirabilis, 4 strains, geometric mean where applicable, read-out: MIC) was 2 µg/mL (≈ 5.72 µM). For the same molecule, the MIC [21] was 1 µg/mL (≈ 2.86 µM), the MIC [22] was 0.35 µg/mL (≈ 1 µM) and the MIC [23] was > 125 µg/mL. It also gave an MIC ([23]; Table 4, K. pneumoniae, 1 strain (first line), read-out: MIC) of 32 µg/mL (≈ 91.6 µM), an MIC [24] of 0.07 µg/mL (≈ 0.2 µM) and an MIC ([25]; Table 4, P. retgeri, 2 strains (third line), geometric mean where applicable) of 32 µg/mL (≈ 91.6 µM). The MIC ([25]; Table 4, P. rettgeri, 1 strain (first line)) was 0.13 µg/mL (≈ 0.372 µM), the MIC ([25]; Table 4, P. rettgeri, 1 strain (second line)) was 4 µg/mL (≈ 11.4 µM) and the MIC [26] was 63 µg/mL (≈ 180 µM). The MIC ([27]; Table 4, S. viridans, 1 strain (second line)) was 0.063 µg/mL (≈ 0.18 µM), the MIC ([27]; Table 4, S. viridans, 3 strains, geometric mean where applicable) was 0.05 µg/mL (≈ 0.143 µM) and the MIC ([27]; Table 4, s. viridans, 1 strain (third line)) was 0.35 µg/mL (≈ 1 µM). For the same molecule, the MIC [28] was 0.02 µg/mL (≈ 0.0572 µM), the MIC ([29]; 1 strain (first line), read-out: MIC) was 63 µg/mL (≈ 180 µM) and the MIC ([29]; 1 strain (second line)) was > 125 µg/mL. It also gave an MIC ([15]; Table 1, Str. pyogenes) of 0.008 µg/mL (≈ 0.0229 µM), a concentration at 0.25 h [16] of 3500 ng/mL and a concentration at 0.5 h [16] of 6600 ng/mL. The concentration at 1 h [16] was 6800 ng/mL, the concentration at 1.5 h [16] was 4300 ng/mL and the concentration at 2 h [16] was 2500 ng/mL. The concentration at 3 h [16] was 1100 ng/mL.
